Assay [1] relates to rat plasma ANF concentration. Description: Effect on rat plasma ANF concentration (ANF-infused conscious rats, radioimmunoassay). The assay is classed as in vivo. Conditions: doses of about 1-30 mg/kg p.o., administered in 10% ethanol/PEG 400, ANF infusion 450 ng/kg/min i.v. Here is the method:
The effect of the compounds of the invention on rat plasma ANF concentration can be determined as follows:
Male Sprague-Dawley rats (275-390 g) are anesthetized -with ketamine (150 mg/kg)/acepromazine (10%) and instrumented with catheters in the femoral artery and vein to obtain blood samples and infuse ANF. respectively. The rats are tethered with a swivel system and are allowed to recover for 24 hours before being studied in the conscious, unrestrained state.
In this assay, plasma ANF levels are determined in the presence and absence of NEP inhibition. On the day of study, all rats are infused continuously with ANF at 450 ng/kg/min. i.v. for the entire 5 hours of the experiment. Sixty minutes after beginning the infusion, blood samples for baseline ANF measurements are obtained (time 0) and the rats are then randomly divided into groups treated with the test compound or vehicle. Additional blood samples are taken 30, 60, 120, 180 and 240 minutes after administration of the test compound.
Plasma concentrations are determined by a specific radioimmunoassay. […] The supernatant is decanted and the pellets counted in a gamma counter. […] Plasma ANF levels are expressed as a percent of those measured in vehicle-treated animals which received ANF alone (450 ng/kg/min i.v.).

In assay [2] the test system is DOCA-salt hypertensive rats. Description: Antihypertensive effect in DOCA-salt hypertensive rats. In kind it is in vivo. The following applies: DOCA-salt hypertensive rat model; 30 mg/kg p.o., administered in PEG 400. Here is the method: The antihypertensive effect can be determined in desoxycorticosterone acetate (DOCA)-salt hypertensive rats.
DOCA-salt hypertensive rats (280-380 g) are prepared by the standard method. Rats underwent a unilateral nephrectomy and one week later are implanted with silastic pellets containing 100 mg/kg of DOCA. The rats are maintained on 1% NaCl/0.2% KCl drinking water for three to five weeks until sustained hypertension is established. The antihypertensive activity is evaluated at this time.
Two days before an experiment, the rats are anesthetized with methoxyflurane and instrumented with catheters in the femoral artery to measure arterial blood pressure. Forty-eight hours later, baseline arterial pressure and heart rate are recorded during a 1 hour period. The test compound (30 mg/kg p.o.) or vehicle is then administered and the same cardiovascular parameters are monitored for an additional 5 hours.

Results on 1 compound are retold here after patent publication US5354892A, “Biaryl substituted 4-amino-butyric acid amides” (Ciba-Geigy Corporation, priority 1993, dated 1994).

Take `CCOC(=O)[C@H](C)C[C@@H](Cc1ccc(-c2ccccc2)cc1)NC(=O)CCC(=O)O` [N-(3-carboxy-1-oxopropyl)-(4S)-(p-phenylphenylmethyl)-4-amino-2R-methylbutanoic acid ethyl ester]: the “plasma ANF levels” value in assay [1] was “significant increases in plasma ANF levels”. Moreover, the blood pressure entry in assay [2] is reported as “significant reduction in blood pressure”.
